Assays:
rats = conditions: in rats; cited from earlier work
HT-29 cells = assay type: cell-based
Description: The IC50 was calculated as being the concentration of SN38-LNCs, of SN38 or unloaded LNCs causing 50% cell death.

mice = conditions: in mice, intravenously; cited from earlier work

For `CCOCCOCCO` [Transcutol®HP, diethyleneglycol monoethyl ether], the DL50 (rats) is listed as > 5 g/kg.

With `CCc1c2c(nc3ccc(O)cc13)-c1cc3c(c(=O)n1C2)COC(=O)[C@]3(O)CC` [free SN38, 7-ethyl-10-hydroxycamptothecin] the “Cytotoxicity relative to CPT11 (times greater)” value (HT-29 cells) was “approximately 250 times”.

In the case of “polyethyleneglycol-660 2-hydroxystearate [Solutol® HS 15]”, the DL50 (mice) is given as > 3.16 g/kg.

— US20120308663A1, “LIPID NANOCAPSULES, METHOD FOR PREPARING SAME AND USE THEREOF AS A DRUG” (priority 2009, published 2012)
